PubChem BioAssay AID330 (DTP/NCI, 2004)
Values joined by “and” are separate entries in the source; they are usually repeats but may differ in a detail not shown here. Identical values can stand only once. Inconclusive results and toxic doses are left out. Peptide text beside a SMILES is read from it. * marks the point of attachment. Cbz = O=C(OCc1ccccc1)*

Test system: P388 leukemia ip, CD2F1 mice, survival T/C
Experiment: NCI In Vivo Anticancer Drug Screen. Data for tumor model P388 Leukemia (intraperitoneal) in CD2F1 (CDF1) mice
Details: endpoint: median survival time, higher = longer survival
Procedure, shortened: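 Mice carrying the transplanted tumor received test compound or vehicle. Survival was recorded in each group, and the value is the treated-group measurement divided by that of the vehicle-treated control group.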

[1] = dose: 25.0 mg/kg/injection, schedule: Q01DX009 (ip), vehicle: saline with Tween-80
[2] = dose: 50.0 mg/kg/injection, schedule: Q01DX009 (ip), vehicle: saline with Tween-80
[3] = dose: 100.0 mg/kg/injection, schedule: Q01DX009 (ip), vehicle: saline with Tween-80
[4] = dose: 100.0 mg/kg/injection, schedule: Q04DX003 (ip), vehicle: saline sonified
[5] = dose: 15.0 mg/kg/injection, schedule: Q01DX005 (ip), vehicle: saline
[6] = dose: 30.0 mg/kg/injection, schedule: Q01DX005 (ip), vehicle: saline
[7] = dose: 60.0 mg/kg/injection, schedule: Q01DX005 (ip), vehicle: saline
[8] = dose: 50.0 mg/kg/injection, schedule: Q01DX005 (ip), vehicle: saline with Tween-80
[9] = dose: 100.0 mg/kg/injection, schedule: Q01DX005 (ip), vehicle: saline with Tween-80
[10] = dose: 200.0 mg/kg/injection, schedule: Q01DX005 (ip), vehicle: saline with Tween-80
[11] = dose: 12.5 mg/kg/injection, schedule: Q01DX009 (ip), vehicle: saline with Tween-80
[12] = dose: 200.0 mg/kg/injection, schedule: Q01DX009 (ip), vehicle: saline with Tween-80

## OC(C1CO1)C(O)C1CO1 (stereo unspecified)
dose: 0.5 mg/kg/injection, schedule: Q01DX005 (ip), vehicle: saline
  T/C: 113 % of control and 124 % of control
dose: 0.5 mg/kg/injection, schedule: Q01DX009 (ip), vehicle: water
  T/C: 175 % of control
dose: 1.0 mg/kg/injection, schedule: Q01DX009 (ip), vehicle: saline
  T/C: 167 % of control and 179 % of control
dose: 1.0 mg/kg/injection, schedule: Q01DX009 (ip), vehicle: water
  T/C: 185 % of control
dose: 1.3 mg/kg/injection, schedule: Q01DX005 (ip), vehicle: saline
  T/C: 121 % of control
dose: 1.5 mg/kg/injection, schedule: Q01DX009 (ip), vehicle: saline
  T/C: 155 % of control and 196 % of control
dose: 2.0 mg/kg/injection, schedule: Q01DX009 (ip), vehicle: saline with Tween-80
  T/C: 159 % of control
dose: 2.0 mg/kg/injection, schedule: Q01DX009 (ip), vehicle: saline
  T/C: 194 % of control and 207 % of control
dose: 2.0 mg/kg/injection, schedule: Q01DX009 (ip), vehicle: water
  T/C: 256 % of control
dose: 3.0 mg/kg/injection, schedule: Q01DX005 (ip), vehicle: saline
  T/C: 170 % of control and 181 % of control
dose: 3.0 mg/kg/injection, schedule: Q01DX009 (ip), vehicle: saline
  T/C: 227 % of control
dose: 4.0 mg/kg/injection, schedule: Q01DX005 (ip), vehicle: saline
  T/C: 216 % of control and 229 % of control
dose: 4.0 mg/kg/injection, schedule: Q01DX009 (ip), vehicle: saline with Tween-80
  T/C: 213 % of control
dose: 4.0 mg/kg/injection, schedule: Q01DX009 (ip), vehicle: saline
  T/C: 291 % of control
dose: 4.5 mg/kg/injection, schedule: Q01DX005 (ip), vehicle: saline
  T/C: 190 % of control and 225 % of control
dose: 6.0 mg/kg/injection, schedule: Q01DX009 (ip), vehicle: saline
  T/C: 89 % of control
dose: 6.7 mg/kg/injection, schedule: Q01DX001 (ip), vehicle: saline
  T/C: 157 % of control and 179 % of control
dose: 6.7 mg/kg/injection, schedule: Q01DX005 (ip), vehicle: saline
  T/C: 266 % of control
dose: 6.7 mg/kg/injection, schedule: Q04DX003 (ip), vehicle: saline
  T/C: 243 % of control and 254 % of control
dose: 8.0 mg/kg/injection, schedule: Q01DX005 (ip), vehicle: saline
  T/C: 89 % of control
dose: 8.0 mg/kg/injection, schedule: Q01DX009 (ip), vehicle: saline with Tween-80
  T/C: 100 % of control
dose: 8.0 mg/kg/injection, schedule: Q01DX009 (ip), vehicle: saline
  T/C: 103 % of control
dose: 10.0 mg/kg/injection, schedule: Q04DX003 (ip), vehicle: saline
  T/C: 281 % of control and 298 % of control
dose: 12.5 mg/kg/injection, schedule: Q04DX003 (ip), vehicle: saline
  T/C: 108 % of control
[1]
  T/C: 100 % of control
dose: 25.0 mg/kg/injection, schedule: Q04DX003 (ip), vehicle: saline sonified
  T/C: 100 % of control
[2]
  T/C: 104 % of control
dose: 50.0 mg/kg/injection, schedule: Q04DX003 (ip), vehicle: saline sonified
  T/C: 100 % of control
[3]
  T/C: 109 % of control
[4]
  T/C: 104 % of control

## CN(C)CCNc1ccccc1[N+](=O)[O-]
dose: 12.5 mg/kg/injection, schedule: Q01DX001 (ip), vehicle: saline
  T/C: 100 % of control
dose: 25.0 mg/kg/injection, schedule: Q01DX001 (ip), vehicle: saline
  T/C: 100 % of control
dose: 50.0 mg/kg/injection, schedule: Q01DX001 (ip), vehicle: saline
  T/C: 100 % of control

## CC(=O)c1c(C)n(-c2ccccc2)c2c1nnc1ccccc12
dose: 3.75 mg/kg/injection, schedule: Q01DX005 (ip), vehicle: Klucel (hydroxypropylcellulose) (HPC)
  T/C: 101 % of control
dose: 7.5 mg/kg/injection, schedule: Q01DX005 (ip), vehicle: Klucel (hydroxypropylcellulose) (HPC)
  T/C: 93 % of control
dose: 15.0 mg/kg/injection, schedule: Q01DX005 (ip), vehicle: Klucel (hydroxypropylcellulose) (HPC)
  T/C: 95 % of control
dose: 120.0 mg/kg/injection, schedule: Q01DX005 (ip), vehicle: Klucel (hydroxypropylcellulose) (HPC)
  T/C: 96 % of control

## O=C1OC(=O)C2C3C=CC(O3)C12 (stereo unspecified)
[5]
  T/C: 100 % of control
[6]
  T/C: 91 % of control
[7]
  T/C: 87 % of control and 89 % of control

## CCSC(=S)N=Nc1c(O)n(C)c2ccccc12
dose: 50.0 mg/kg/injection, schedule: Q01DX009 (ip), vehicle: saline
  T/C: 93 % of control
dose: 100.0 mg/kg/injection, schedule: Q01DX009 (ip), vehicle: saline
  T/C: 94 % of control

## CC(C)CC(NC(=O)C(NC(=O)OCc1ccccc1)C(C)C)C(=O)O (stereo not drawn) (Cbz-Val-Leu-OH; configuration not given here)
[8]
  T/C: 92 % of control
[9]
  T/C: 106 % of control
[10]
  T/C: 111 % of control

## O=c1oc(-c2cccc(C[n+]3ccccc3)c2)nc2cc(Cl)ccc12
[5]
  T/C: 98 % of control
[6]
  T/C: 100 % of control
[7]
  T/C: 102 % of control and 110 % of control

## O=C(CCl)c1ccc2c(c1)N(C(=O)COc1ccccc1)c1ccccc1S2
dose: 50.0 mg/kg/injection, schedule: Q01DX001 (ip), vehicle: Klucel (hydroxypropylcellulose) (HPC)
  T/C: 89 % of control
dose: 100.0 mg/kg/injection, schedule: Q01DX001 (ip), vehicle: Klucel (hydroxypropylcellulose) (HPC)
  T/C: 91 % of control
dose: 200.0 mg/kg/injection, schedule: Q01DX001 (ip), vehicle: Klucel (hydroxypropylcellulose) (HPC)
  T/C: 96 % of control

## Cc1cc(C(=O)N/N=C/c2ccccc2O)c2cc(Br)ccc2n1
[11]
  T/C: 88 % of control
[1]
  T/C: 92 % of control
[3]
  T/C: 98 % of control
[12]
  T/C: 97 % of control

## COc1ccc(CN2CCc3cc(OC)c(O)cc3C2)cc1O
dose: 100.0 mg/kg/injection, schedule: Q01DX001 (ip), vehicle: saline with Tween-80
  T/C: 94 % of control
dose: 200.0 mg/kg/injection, schedule: Q01DX001 (ip), vehicle: saline with Tween-80
  T/C: 98 % of control

## CCc1cccc(CC)c1NC(=S)NC(=O)c1ccccc1
[2]
  T/C: 95 % of control
[3]
  T/C: 96 % of control
[12]
  T/C: 96 % of control

## O=C(O)c1nn(Cc2ccc(Cl)cc2)c2ccccc12
[2]
  T/C: 109 % of control
[3]
  T/C: 103 % of control
[12]
  T/C: 110 % of control

## COC(=O)c1cc2c(s1)C(=O)c1ccccc1-2
[2]
  T/C: 91 % of control
[3]
  T/C: 103 % of control
[12]
  T/C: 100 % of control

## O=C1CCC(N2CCCCC2)CCC1(c1ccccc1)c1ccccc1 (stereo unspecified)
[8]
  T/C: 106 % of control
[9]
  T/C: 103 % of control
[10]
  T/C: 96 % of control

## O=C1CC2C3Nc4ccccc4C3CCN2C2=C1CC(OC(=O)c1ccccc1)CC2 (stereo unspecified)
[4]
  T/C: 100 % of control
dose: 200.0 mg/kg/injection, schedule: Q04DX003 (ip), vehicle: saline sonified
  T/C: 100 % of control
dose: 400.0 mg/kg/injection, schedule: Q04DX003 (ip), vehicle: saline sonified
  T/C: 95 % of control

## CCOc1cc2c(cc1C(C)c1ccc(OC)c(C)c1)OCO2 (stereo unspecified)
dose: 12.5 mg/kg/injection, schedule: Q01DX005 (ip), vehicle: Klucel (hydroxypropylcellulose) (HPC)
  T/C: 92 % of control
dose: 25.0 mg/kg/injection, schedule: Q01DX005 (ip), vehicle: Klucel (hydroxypropylcellulose) (HPC)
  T/C: 91 % of control
dose: 50.0 mg/kg/injection, schedule: Q01DX005 (ip), vehicle: Klucel (hydroxypropylcellulose) (HPC)
  T/C: 102 % of control and 111 % of control
dose: 100.0 mg/kg/injection, schedule: Q01DX005 (ip), vehicle: Klucel (hydroxypropylcellulose) (HPC)
  T/C: 101 % of control and 112 % of control
dose: 200.0 mg/kg/injection, schedule: Q01DX005 (ip), vehicle: Klucel (hydroxypropylcellulose) (HPC)
  T/C: 101 % of control and 114 % of control

## CC(C)c1nnc2cc3c(cc2c1N)oc1ccccc13
dose: 100.0 mg/kg/injection, schedule: Q04DX002 (ip), vehicle: saline with Tween-80
  T/C: 87 % of control
dose: 200.0 mg/kg/injection, schedule: Q04DX002 (ip), vehicle: saline with Tween-80
  T/C: 92 % of control
dose: 400.0 mg/kg/injection, schedule: Q04DX002 (ip), vehicle: saline with Tween-80
  T/C: 87 % of control

## O=C(Nc1ncn[nH]1)C(=O)Nc1ncn[nH]1
dose: 6.25 mg/kg/injection, schedule: Q01DX009 (ip), vehicle: saline with Tween-80
  T/C: 92 % of control
[11]
  T/C: 94 % of control
[1]
  T/C: 95 % of control

## CSCCC(NC(=O)C(Cc1ccccc1)NC(=O)CNC(=O)CNC(=O)C(N)Cc1ccc(O)cc1)C(=O)O (stereo unspecified)
[8]
  T/C: 101 % of control
[9]
  T/C: 92 % of control
[10]
  T/C: 92 % of control

## O=c1oc2ccc(Br)cc2cc1-n1nnc2ccccc21
dose: 15.0 mg/kg/injection, schedule: Q01DX005 (ip), vehicle: saline with Tween-80
  T/C: 88 % of control
dose: 30.0 mg/kg/injection, schedule: Q01DX005 (ip), vehicle: saline with Tween-80
  T/C: 93 % of control
dose: 60.0 mg/kg/injection, schedule: Q01DX005 (ip), vehicle: saline with Tween-80
  T/C: 88 % of control and 90 % of control
dose: 120.0 mg/kg/injection, schedule: Q01DX005 (ip), vehicle: saline with Tween-80
  T/C: 86 % of control and 97 % of control
dose: 240.0 mg/kg/injection, schedule: Q01DX005 (ip), vehicle: saline with Tween-80
  T/C: 97 % of control
